Where two headings read alike, the source gives them in different places.
Legend:
[1] = test system: isolated duodenum of a rat (barium chloride); test: Spasmolytic: contraction by barium chloride of isolated duodenum of a rat
Description: Compounds of formula I, introduced in the survival medium, are capable of opposing the contacting action of barium chloride on the isolated duodenum of a rat. This activity is determined either by taking papaverine as the standard or by calculating the DE50 of the compound tested.

[2] = test system: painful stretchings following intraperitoneal injection of acetic acid; test: Analgesic: painful stretchings following intraperitoneal acetic acid in mouse; assay type: in vivo; details: 100 mg/kg/PO, read-out: Percentage reduction in the number of painful stretchings
Source text: The compounds of formula (I) administered orally to a mouse are capable of reducing the number of painful stretchings following the intraperitoneal injection of acetic acid.

[3] = test system: ventricular fibrillations caused by inhaling chloroform; test: Antiarythmic: ventricular fibrillations caused by inhaling chloroform in mouse; assay type: in vivo; details: ip, intraperitoneal, read-out: Antagonism to fibrillations caused by chloroform with a mouse, DE50
Source text: Administered intraperitoneally, the compounds of formula (I) are able to protect the mouse against ventricular fibrillations caused by inhaling chloroform.

[4] = test system: gastric ulcers (Shay ulcers); test: Antiulcerous: gastric ulcers caused in a rat by ligature of the pylorus (Shay ulcers); assay type: in vivo; details: 50 mg/kg, intraduodenal
Description: Compounds of formula (I) administered intraduodenally reduce the size of gastric ulcers caused in a rat by ligature of the pylorus (Shay ulcers). As examples, the intradeuodenal administration of 50 mg/kg of the compounds of code numbers 72143 and 7251 bring about a 70% and 65% reduction respectively of the Shay ulcer.

[5] = test system: urinary elimination; test: Diuretic: volume of urine in mouse; assay type: in vivo; details: 4 hours, versus controls, read-out: Percentage increase in urinary elimination; for change in vivo at 50 mg/kg: 50 mg/kg/PO
Description: The compounds of formula (I) administered orally to a mouse simultaneously with a volume of 1 ml of sodium chloride isotonic solute per 25 g of body weight are able to cause an increase of the volume of urine given compared with controls, this volume being measured for the 4 hours following administration.

[6] = Acute toxicity / mortality, oral, mice; assay type: in vivo; details: mouse, in vivo; for mortality: read-out: Percentage of mortality with mice; for LD50: mice, oral, Table XI, read-out: LD50 (mice)
Source text: (§1) As is shown by the preceding results and by those given in Table XIV below, the difference between pharmacologically active doses and lethal doses is sufficiently great to allow the use of compounds of formula (I) in therapeutics.

[7] = test system: mice; test: Acute toxicity / mortality, oral, mice; assay type: in vivo; details: oral; Table XII
Source text: as §1

[8] = test system: ptosis caused by reserpine; test: Anti-depressive: antagonism against ptosis caused by intravenous reserpine; assay type: in vivo; details: for ED50: po, Table XII, read-out: Antagonism against ptosis caused by reserpine, DE50
Description: (§2) In this regard, the compounds of formula I differ unexpectedly from the compounds of U.S. Pat. No. 3,726,900, as shown by comparative testing.
(§3) The anti-depressive properties of additional analog compounds were tested by the same tests. In these tests, the comparison compounds had the formula [drawing 28] The specific compounds tested and the test results are indicated in Table XIII.

[9] = test system: bronchoconstrictions provoked by serotonine; test: Antiserotonine: bronchoconstrictions provoked by intravenous serotonine in guinea pigs (Konzett and Rossler test); assay type: in vivo; details: Cavia porcellus, serotonine bronchoconstriction, read-out: Test of Konzett and Rossler DE50
Source text: (§4) For purposes of comparison, compounds of the formula (I) were compared, as to their antiserotonine properties, with a respresentative sampling of compounds disclosed in U.S. Pat. No. 3,726,900. The comparison compounds tested have the formula [drawing 23]

[10] = test system: lethal effect of yohimbine; test: Anti-depressive: potentialization of lethal effect of yohimbine; assay type: in vivo; details: Table XII
[11] = test system: cough caused by stimulation of the upper laryngeal nerve; test: Anti-cough: cough caused by stimulation of the upper laryngeal nerve in an anaesthetized cat; assay type: in vivo; details: 25 mg/kg/ID
[12] = test system: respiratory depression caused by morphine; test: Respiratory analeptic: respiratory depression caused by morphine in anaesthetized guinea pig; assay type: in vivo; details: 5 mg/kg/IV
Description: The compounds of formula (I) administered intravenously to an anaesthetized guinea pig are capable of opposing respiratory depression caused by morphine. As an example, with a dose of 5 mg/kg/IV, compound 70358 increased respiratory frequency by 65%.

[13] = test system: lethal effect of yohimbine; test: Anti-depressive: potentialization of lethal effect of yohimbine; assay type: in vivo; details: at 100 mg/kg/PO
Description: as §2, §3

[14] = test system: coronary vessels of the isolated heart of a guinea pig; test: Vasodilatory: flow in coronary vessels of isolated heart of a guinea pig; details: 0.5 μg/ml in perfusion liquid
Description: The compounds of formula (I) are able to increase the flow in the coronary vessels of the isolated heat of a guinea pig when they are added to the perfusion liquid of this organ. As an example, by adding 0.5 μg/ml of the compound code number 71562 to the perfusion liquid of the isolated heart of a guinea pig, a 45% increase in the flow of the coronary vessels was observed.

[15] = test system: explorations in the escape enclosure; test: Sedative: number of explorations in the escape enclosure, mouse; assay type: in vivo; details: 100 mg/kg/PO
Description: The compounds of formula (I) administered orally to a mouse reduce the number of explorations in the escape enclosure. As examples, the administration of 100 mg/kg/PO of the compounds of code numbers 71562 and 72142 bring about a 40% reduction in the number of explorations in the escape enclosure in each case.

[16] = test system: isolated fundus of rats (serotonine); test: Antiserotonine: contractions of the isolated fundus of rats provoked by serotonine; details: in vitro
Source text: as §4

[17] = test system: isolated ileum of a guinea pig (histamine); test: Antihistamine: contraction by histamine of isolated ileum of a guinea pig
Description: The compounds of formula (I) introduced in the survival medium are able to oppose the contracting action of histamine on the isolated ileum of a guinea pig. This activity is calculated by the DE50 of the tested compounds.

[18] = test system: local edema caused by carraghenine; test: Antiinflammatory: local plantar edema caused by carraghenine in rat; assay type: in vivo; details: 30 mg/kg/PO
Source text: These properties bring about a reduction of the local edema, caused by injecting a rat under the plantar with a phlogogenic agent such as carraghenine, following oral administration of compounds of formula (I).

[19] = at 50 mg/kg/PO, result in words

In the case of CN(C)C(=O)CN1CCN(CC2COC3(O2)c2ccccc2C=Cc2ccccc23)CC1 (centres unmarked) [compound 7251], the “DE50 (spasmolytic)” value [1] is reported as 3.50 µg/mL, the inhibition in vivo at 100 mg/kg [2] is reported as 50% and the ED50 [3] is reported as 100 mg/kg. The “Reduction of the Shay ulcer” value [4] was 65%, the change in vivo at 50 mg/kg [5] was 45% and the mortality ([6]; 2000 mg/kg/PO) was 0%. For the same molecule, the LD50 [6] was > 2000 mg/kg, the LD50 [7] was > 2000 mg/kg/P.O and the “Antagonism against ptosis caused by reserpine” value (“Antagonism … by reserpine” below) [8, 19] was “Inactive”.

Work on CN(C)CC1COC2(O1)c1ccccc1CCc1ccccc12 (centres unmarked) [compound 69257, reference compound] yielded an ED50 [9] of 0.4 mg/kg, an LD50 [6] of 550 mg/kg and an ED50 [8] of 35 mg/kg. The “Potentialization of lethal effect of yohimbine, DE50” value [10] was 10 mg/kg/PO.

Molecule CN(C)CC1COC2(O1)c1ccccc1C=Cc1ccccc12 (centres unmarked) [compound 70312, reference compound] has an ED50 [9] of 0.43 mg/kg, an LD50 [6] of 480 mg/kg and an ED50 [8] of 13 mg/kg. The “Potentialization of lethal effect of yohimbine, DE50” value [10] was 46 mg/kg/PO.

With CN1CCN(CC2COC3(O2)c2ccccc2CCc2ccccc23)CC1 (centres unmarked) [compound 70358] the “Reduction of cough, duration” value [11] was > 60 mm, the “Reduction of cough, intensity” value [11] was 100% and the Spasmolytic activity ([1]; relative to papaverine as the standard) was 1.5 × papaverine. For the same molecule, the inhibition in vivo at 100 mg/kg [2] was 43%, the “Increase in respiratory frequency” value [12] was 65% and the mortality ([6]; 1000 mg/kg/PO) was ~50%. For the same molecule, the LD50 [6] was 1000 mg/kg, the “Antagonism … by reserpine” value ([8]; at 100 mg/kg/PO) was “Inactive” and the “Potentialization of lethal effect of yohimbine” value [13] was 40%.

With O=C(CN1CCN(CC2COC3(O2)c2ccccc2C=Cc2ccccc23)CC1)N1CCCC1 (centres unmarked) [compound 71562] the inhibition in vivo at 100 mg/kg [2] was 47%, the “Increase in the flow of the coronary vessels” value [14] was 45% and the ED50 [3] was 125 mg/kg. For the same molecule, the “Reduction in the number of explorations in the escape enclosure” value [15] was 40%, the change in vivo at 50 mg/kg [5] was 70% and the Antagonisms against contractions of fundus of rat, DE50 [16] was 0.1 µg/mL. For the same molecule, the mortality ([6]; 2000 mg/kg/PO) was ~50% and the LD50 [6] was 2000 mg/kg.

For CCCNC(=O)CN1CCN(CC2COC3(O2)c2ccccc2C=Cc2ccccc23)CC1 (centres unmarked) [compound 72142], the “DE50 (spasmolytic)” value [1] was 2.50 µg/mL, the inhibition in vivo at 100 mg/kg [2] was 70% and the ED50 [3] was 85 mg/kg. The “Antihistamine activity DE50” value [17] was 0.6 µg/mL, the “Reduction in the number of explorations in the escape enclosure” value [15] was 40% and the change in vivo at 50 mg/kg [5] was 55%. For the same molecule, the ED50 [9] was 0.6 mg/kg, the mortality ([6]; 1650 mg/kg/PO) was ~50% and the LD50 [6] was 1650 mg/kg. The “Antagonism … by reserpine” value ([8]; at 100 mg/kg/PO) was “Inactive” and the “Potentialization of lethal effect of yohimbine” value [13] was 40%.

For CN1CCN(CC2COC3(O2)c2ccccc2C=Cc2ccccc23)CC1 (centres unmarked) [compound 72143], the “DE50 (spasmolytic)” value [1] was 3.75 µg/mL, the “Percentage reduction of the edema” value [18] was 70% and the “Reduction of the Shay ulcer” value [4] was 70%. The “Antihistamine activity DE50” value [17] was 0.25 µg/mL, the change in vivo at 25 mg/kg ([5]; 25 mg/kg/PO) was 70% and the mortality ([6]; 300 mg/kg/PO) was ~50%. For the same molecule, the LD50 [6] was 300 mg/kg and the “Antagonism … by reserpine” value [8, 19] was “Inactive”.

Source: patent US4049660A, “N-substituted derivatives of 4 (N-piperazinylmethyl) spiro dibenzocycloheptadi- (or tri-) ene-5, 2-dioxolane (1,3) their method of preparation and their application in therapeutics” (Delalande S.A., priority 1971, dated 1977)
